Assay results published in article PMC4365270 (Cancer Chemotherapy and Pharmacology, 2015).
Entries after “also recorded” stand apart in the source; their conditions may differ. Like-named read-outs stand apart in the source and are kept apart here.

What was measured:
[1] = Plasma pharmacokinetics of DEBIO1143 in patients (LC-MS/MS); format: in vivo, human; conditions: for AUC(0-t) / Cmax / Tmax / AUC(0-inf) / half-life: human, plasma
Method: Pharmacokinetic samples were taken from all patients on day 1 (predose, 0.5, 1, 2, 3, 4, 6, 8, 12, 18 h postdose) and on day 5 (predose, 0.5, 1, 2, 3, 4, 6, 8 h postdose) of the first cycle. In addition, for exploratory PD analysis of IAP inhibition and activation of apoptosis, optional skin and tumor biopsies were taken from consenting patients on days 1 (predose) and 5 and blood samples on day 1 (predose, 1, 3, 6, 8, 12 h postdose), day 2 (predose), and day 5 (3 h postdose).
C max and t max were determined by direct assessment of the observed concentration versus time curves. The area under the curve until the last quantifiable concentration (AUC0−t) was estimated by a linear up/log down method if ≥3 values were available and extrapolated to infinity (AUCinf), if the extrapolated part was <30 %. The terminal elimination half-life (T 1/2) was calculated as the ratio of loge^2 to the apparent terminal phase rate constant (λ z), determined through unweighted linear regression analysis on ≥3 log-transformed concentrations on the linear portion of the terminal slope, excluding the peak concentration. In general, points maximizing R ^2 up to at least 0.9 were included for linear regression.
For the detection of cIAP-1 in paraffin-embedded human tissue, a validated immunohistochemical (IHC) assay was used. […] Plasma biomarkers were measured through commercial ELISAs. All laboratory analyses were performed by MPI Research, Inc. (PK) and Mosaic Laboratory, LLC (PD).

[2] = system: advanced solid tumors and lymphomas; assay: Antitumor activity (RECIST 1.1 / lymphoma criteria); format: in vivo, human
Method: Tumor evaluations were scheduled before therapy and after every other cycle of therapy. Changes were determined by physical examination, tumor markers, or standard imaging techniques. […] Read-outs were complete response (CR), partial response (PR), stable disease (SD), and disease progression (DP).

[3] = oral, 80 mg, day 1, n=3, mean (SD)
[4] = oral, 80 mg, day 5, n=3, mean (SD)
[5] = oral, 120 mg, day 1, n=3, mean (SD)
[6] = oral, 120 mg, day 5, n=3, mean (SD)
[7] = oral, 180 mg, day 1, n=7, mean (SD)
[8] = oral, 180 mg, day 5, n=7, mean (SD)
[9] = oral, 260 mg, day 1, n=3, mean (SD)
[10] = oral, 260 mg, day 5, n=3, mean (SD)
[11] = oral, 400 mg, day 1, n=3, mean (SD)
[12] = oral, 400 mg, day 5, n=3, mean (SD)
[13] = oral, 600 mg, day 1, n=3, mean (SD)
[14] = oral, 600 mg, day 5, n=3, mean (SD)
[15] = oral, 900 mg, day 1, n=6, mean (SD)
[16] = oral, 900 mg, day 5, n=6, mean (SD)

CN[C@@H](C)C(=O)N[C@H]1CN(C(=O)CC(C)C)CC[C@H]2CC[C@@H](C(=O)NC(c3ccccc3)c3ccccc3)N2C1=O [DEBIO1143]
Dose proportionality of C max and AUC ([1]; doses 80 to 900 mg): increased proportionally; also recorded: proportional to doses ≥80 mg
Drug levels versus levels active in animal models ([1]; doses of ≥80 mg): exceeded levels that have demonstrated activity in animal models
AUC(0-t) ([1]; oral, 5 mg, day 1, n=1): 19.6 ng·h/mL
Cmax ([1]; oral, 5 mg, day 1, n=1): 6.69 ng/mL
Tmax ([1]; oral, 5 mg, day 1, n=1, read-out: T max): 3 h
AUC(0-t) ([1]; oral, 5 mg, day 5, n=1): 43.4 ng·h/mL
Cmax ([1]; oral, 5 mg, day 5, n=1): 18.5 ng/mL
Tmax ([1]; oral, 5 mg, day 5, n=1, read-out: T max): 1.6 h
AUC(0-inf) ([1]; oral, 10 mg, day 1, n=1): 152 ng·h/mL
AUC(0-t) ([1]; oral, 10 mg, day 1, n=1): 129 ng·h/mL
Cmax ([1]; oral, 10 mg, day 1, n=1): 37.4 ng/mL
half-life ([1]; oral, 10 mg, day 1, n=1, read-out: T 1/2 (converted)): 2.46 h
Tmax ([1]; oral, 10 mg, day 1, n=1, read-out: T max): 1 h
AUC(0-inf) ([1]; oral, 10 mg, day 5, n=1): 117 ng·h/mL
AUC(0-t) ([1]; oral, 10 mg, day 5, n=1): 103 ng·h/mL
Cmax ([1]; oral, 10 mg, day 5, n=1): 26.9 ng/mL
half-life ([1]; oral, 10 mg, day 5, n=1, read-out: T 1/2 (converted)): 2.53 h
Tmax ([1]; oral, 10 mg, day 5, n=1, read-out: T max): 3.5 h
AUC(0-inf) ([1]; oral, 20 mg, day 1, n=1): 643 ng·h/mL
AUC(0-t) ([1]; oral, 20 mg, day 1, n=1): 615 ng·h/mL
Cmax ([1]; oral, 20 mg, day 1, n=1): 126 ng/mL
half-life ([1]; oral, 20 mg, day 1, n=1, read-out: T 1/2 (converted)): 5.44 h
Tmax ([1]; oral, 20 mg, day 1, n=1, read-out: T max): 1 h
AUC(0-inf) ([1]; oral, 20 mg, day 5, n=1): 451 ng·h/mL
AUC(0-t) ([1]; oral, 20 mg, day 5, n=1): 375 ng·h/mL
Cmax ([1]; oral, 20 mg, day 5, n=1): 134 ng/mL
half-life ([1]; oral, 20 mg, day 5, n=1, read-out: T 1/2 (converted)): 3.37 h
Tmax ([1]; oral, 20 mg, day 5, n=1, read-out: T max): 0.5 h
AUC(0-inf) ([1]; oral, 40 mg, day 1, n=1): 2300 ng·h/mL
AUC(0-t) ([1]; oral, 40 mg, day 1, n=1): 2140 ng·h/mL
Cmax ([1]; oral, 40 mg, day 1, n=1): 627 ng/mL
half-life ([1]; oral, 40 mg, day 1, n=1, read-out: T 1/2 (converted)): 6.38 h
Tmax ([1]; oral, 40 mg, day 1, n=1, read-out: T max): 1 h
AUC(0-t) ([1]; oral, 40 mg, day 5, n=1): 1090 ng·h/mL
Cmax ([1]; oral, 40 mg, day 5, n=1): 184 ng/mL
Tmax ([1]; oral, 40 mg, day 5, n=1, read-out: T max): 6.1 h
AUC(0-inf) [1, 3]: 6660 ng·h/mL
AUC(0-t) [1, 3]: 6390 ng·h/mL
Cmax [1, 3]: 1330 ng/mL
half-life ([1]; oral, 80 mg, day 1, n=3, mean (SD), read-out: T 1/2 (converted)): 5.22 h
Tmax ([1]; oral, 80 mg, day 1, n=3, median (min–max), read-out: T max): 2 h
AUC(0-inf) [1, 4]: 5920 ng·h/mL
AUC(0-t) [1, 4]: 5020 ng·h/mL
Cmax [1, 4]: 1670 ng/mL
half-life ([1]; oral, 80 mg, day 5, n=3, mean (SD), read-out: T 1/2 (converted)): 2.69 h
Tmax ([1]; oral, 80 mg, day 5, n=3, median (min–max), read-out: T max): 2 h
AUC(0-inf) [1, 5]: 7460 ng·h/mL
AUC(0-t) [1, 5]: 6890 ng·h/mL
Cmax [1, 5]: 1650 ng/mL
half-life ([1]; oral, 120 mg, day 1, n=3, mean (SD), read-out: T 1/2 (converted)): 6.39 h
Tmax ([1]; oral, 120 mg, day 1, n=3, median (min–max), read-out: T max): 1 h
AUC(0-inf) [1, 6]: 6770 ng·h/mL
AUC(0-t) [1, 6]: 5430 ng·h/mL
Cmax [1, 6]: 1190 ng/mL
half-life ([1]; oral, 120 mg, day 5, n=3, mean (SD), read-out: T 1/2 (converted)): 2.61 h
Tmax ([1]; oral, 120 mg, day 5, n=3, median (min–max), read-out: T max): 2 h
AUC(0-inf) [1, 7]: 11400 ng·h/mL
AUC(0-t) [1, 7]: 10600 ng·h/mL
Cmax [1, 7]: 2130 ng/mL
half-life ([1]; oral, 180 mg, day 1, n=7, mean (SD), read-out: T 1/2 (converted)): 6.06 h
Tmax ([1]; oral, 180 mg, day 1, n=7, median (min–max), read-out: T max): 2 h
AUC(0-inf) [1, 8]: 9980 ng·h/mL
AUC(0-t) [1, 8]: 7210 ng·h/mL
Cmax [1, 8]: 2160 ng/mL
half-life ([1]; oral, 180 mg, day 5, n=7, mean (SD), read-out: T 1/2 (converted)): 4.14 h
Tmax ([1]; oral, 180 mg, day 5, n=7, median (min–max), read-out: T max): 2 h
AUC(0-inf) [1, 9]: 17900 ng·h/mL
AUC(0-t) [1, 9]: 16300 ng·h/mL
Cmax [1, 9]: 2890 ng/mL
half-life ([1]; oral, 260 mg, day 1, n=3, mean (SD), read-out: T 1/2 (converted)): 6.59 h
Tmax ([1]; oral, 260 mg, day 1, n=3, median (min–max), read-out: T max): 3 h
AUC(0-inf) [1, 10]: 11700 ng·h/mL
AUC(0-t) [1, 10]: 10600 ng·h/mL
Cmax [1, 10]: 2760 ng/mL
half-life ([1]; oral, 260 mg, day 5, n=3, mean (SD), read-out: T 1/2 (converted)): 3.29 h
Tmax ([1]; oral, 260 mg, day 5, n=3, median (min–max), read-out: T max): 2 h
AUC(0-inf) [1, 11]: 27000 ng·h/mL
AUC(0-t) [1, 11]: 25000 ng·h/mL
Cmax [1, 11]: 5280 ng/mL
half-life ([1]; oral, 400 mg, day 1, n=3, mean (SD), read-out: T 1/2 (converted)): 6.27 h
Tmax ([1]; oral, 400 mg, day 1, n=3, median (min–max), read-out: T max): 1 h
AUC(0-inf) [1, 12]: 26500 ng·h/mL
AUC(0-t) [1, 12]: 20100 ng·h/mL
Cmax [1, 12]: 5540 ng/mL
half-life ([1]; oral, 400 mg, day 5, n=3, mean (SD), read-out: T 1/2 (converted)): 3.7 h
Tmax ([1]; oral, 400 mg, day 5, n=3, median (min–max), read-out: T max): 0.5 h
AUC(0-inf) [1, 13]: 28700 ng·h/mL
AUC(0-t) [1, 13]: 27000 ng·h/mL
Cmax [1, 13]: 5780 ng/mL
half-life ([1]; oral, 600 mg, day 1, n=3, mean (SD), read-out: T 1/2 (converted)): 5.75 h
Tmax ([1]; oral, 600 mg, day 1, n=3, median (min–max), read-out: T max): 1.1 h
AUC(0-inf) [1, 14]: 25000 ng·h/mL
AUC(0-t) [1, 14]: 20200 ng·h/mL
Cmax [1, 14]: 7110 ng/mL
half-life ([1]; oral, 600 mg, day 5, n=3, mean (SD), read-out: T 1/2 (converted)): 3.54 h
Tmax ([1]; oral, 600 mg, day 5, n=3, median (min–max), read-out: T max): 1 h
AUC(0-inf) [1, 15]: 61500 ng·h/mL
AUC(0-t) [1, 15]: 56100 ng·h/mL
Cmax [1, 15]: 10100 ng/mL
half-life ([1]; oral, 900 mg, day 1, n=6, mean (SD), read-out: T 1/2 (converted)): 7.11 h
Tmax ([1]; oral, 900 mg, day 1, n=6, median (min–max), read-out: T max): 1.5 h
AUC(0-inf) [1, 16]: 47000 ng·h/mL
AUC(0-t) [1, 16]: 36900 ng·h/mL
Cmax [1, 16]: 10300 ng/mL
half-life ([1]; oral, 900 mg, day 5, n=6, mean (SD), read-out: T 1/2 (converted)): 3.15 h
Tmax ([1]; oral, 900 mg, day 5, n=6, median (min–max), read-out: T max): 1.5 h
half-life ([1]; oral, all doses, read-out: Average T 1/2 (converted)): ~6 h
Tmax ([1]; oral, all doses, read-out: Average t max): ~1 h
half-life ([1]; oral, day 1, regardless of the dose, read-out: Mean T 1/2, range across doses): 5.2 to 7.1 h
Tmax ([1]; po, after oral intake, read-out: Time to peak plasma concentrations): 1 to 3 h
Complete or partial response ([2]; 31 patients): No patient had a complete or partial response
Duration of stable disease, range ([2]; five patients): 85 to 197 days
Median duration of stable disease ([2]; five patients): 93 days
Reduction in target lesion dimensions ([2]; one patient with metastatic melanoma, 400 mg/day): 11%
